This is an account of results in patent US20250333397A1 (REMIX THERAPEUTICS INC., priority 2021, published 2025).

By IC50 is commonly meant the concentration at which inhibition is half-maximal. One may read the AC50 as the midpoint of the concentration-response curve, whichever way the signal moves.

Where two headings read alike, the source gives them in different places.

Format in all cases: cell-based, human
One assay has as its system SMN2 mRNA. The assay is described as follows: RT-qPCR splicing assay panel, SMN2 canonical junction (CJ) mRNA. The procedure, abridged:
(§1)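 A673 (DMEM/10% FBS) or K562 (IMDM/10% FBS) cells treated 24 h at 37 °C with 11-point 3-fold dilutions, top 10 uM final, DMSO ≤0.25%. Lysates read by one-step RT-qPCR for CJ and AJ isoforms, normalized to GAPDH, GUSB or PPIA. ΔΔCt vs DMSO gives RQ via 2^(-ΔΔCt).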
Background: In qPCR the cycle at which signal appears reflects the starting amount.

The next assay concerns Target C mRNA. As to the kind of experiment: RT-qPCR splicing assay panel, Target C canonical junction (CJ) mRNA. The procedure, abridged: as §1
Another assay has as its system MYB mRNA. The assay is described as follows: RT-qPCR splicing assay, MYB canonical (CJ) and alternative (AJ) junction mRNA. Particulars: for AC50: read-out: MYB AJ (AC50, increase in AJ mRNA). The procedure, abridged: as §1
The next assay concerns HTT mRNA. As to the kind of experiment: RT-qPCR splicing assay, HTT canonical (CJ) and alternative (AJ) junction mRNA. Particulars: for AC50: read-out: HTT AJ (AC50, increase in AJ mRNA). The procedure, abridged:
as §1

[1] abbreviates: Homo sapiens, 24 h, Table 3B, A673 or K562 cells, 24 h treatment.
Setting [2] is: Homo sapiens, canonical junction (CJ) mRNA, RT-qPCR panel, Table 4A, read-out: SMN2, decrease in CJ mRNA levels, IC50.
Where [3] appears, read: Homo sapiens, canonical junction (CJ) mRNA, RT-qPCR panel, Table 4A, read-out: Target C, decrease in CJ mRNA levels, IC50.
Where [4] appears, read: Homo sapiens, 24 h, Table 3A, A673 or K562 cells, 24 h treatment.
The mark [5] stands for this setting: Homo sapiens, 24 h, Table 3A, A673 or K562 cells, 24 h treatment, read-out: MYB CJ (IC50, decrease in CJ mRNA).
Setting [6] is: Homo sapiens, canonical junction (CJ) mRNA, RT-qPCR panel, Table 4A, read-out: MYB, decrease in CJ mRNA levels, IC50.
The mark [7] stands for this setting: Homo sapiens, 24 h, Table 3A, A673 or K562 cells, 24 h treatment, read-out: HTT CJ (IC50, decrease in CJ mRNA).
Where [8] appears, read: Homo sapiens, canonical junction (CJ) mRNA, RT-qPCR panel, Table 4A, read-out: HTT, decrease in CJ mRNA levels, IC50.
The mark [9] stands for this setting: Table 3A, A673 or K562 cells, 24 h treatment.

As for `Cc1nc2cc(O)c(-c3cnc(N4CC[C@H](NC(C)(C)C)C4)nn3)cc2o1` [Compound 809], the IC50 with SMN2 mRNA (Homo sapiens, Table 4B, gene panel, read-out: SMN2 (IC50, decrease in CJ mRNA levels)) was 100 to 1000 nM; with Target C mRNA (Homo sapiens, Table 4B, gene panel, read-out: Target C (IC50, decrease in CJ mRNA levels)) it was 1000 to 10000 nM; in the assay on MYB mRNA (Homo sapiens, 24 h, Table 3B, A673 or K562 cells, 24 h treatment, read-out: MYB CJ (IC50, decrease in CJ mRNA)) it was 1000 to 10000 nM; in the assay on MYB mRNA (Homo sapiens, Table 4B, gene panel, read-out: MYB (IC50, decrease in CJ mRNA levels)), 1000 to 10000 nM; in the assay on HTT mRNA (Homo sapiens, 24 h, Table 3B, A673 or K562 cells, 24 h treatment, read-out: HTT CJ (IC50, decrease in CJ mRNA)), less than 100 nM; with HTT mRNA (Homo sapiens, Table 4B, gene panel, read-out: HTT (IC50, decrease in CJ mRNA levels)), less than 100 nM. In addition, the AC50 in the assay with MYB mRNA (setting [1]) and in the assay on HTT mRNA (setting [1]) was 1000 to 10000 nM in each case.

As for `Oc1cc(-c2cn[nH]c2)ccc1-c1ccc(N2CCC(NC3(C(F)F)CC3)C2)nn1` (centres unmarked) [Compound 117, 2-[6-(3-{[1-(difluoromethyl)cyclopropyl]amino}pyrrolidin-1-yl)pyridazin-3-yl]-5-(1H-pyrazol-4-yl)phenol], the IC50 in the assay with SMN2 mRNA (setting [2]) was 100 to 1000 nM; with Target C mRNA (setting [3]), more than 10000 nM; in the assay on MYB mRNA (setting [5]), more than 10000 nM; in the assay with MYB mRNA (setting [6]), more than 10000 nM; in the assay on HTT mRNA (setting [7]), 1000 to 10000 nM; with HTT mRNA (setting [8]) it was 1000 to 10000 nM. Also, the AC50 with MYB mRNA (setting [4]) was more than 10000 nM; in the assay with HTT mRNA (setting [4]), 1000 to 10000 nM.

In the case of `COc1cc(-c2ccc(-c3ccc(N4CC[C@H](NC5CC5)C4)nn3)c(O)c2)cnn1` [Compound 215, 2-{6-[(3S)-3-(cyclopropylamino)pyrrolidin-1-yl]pyridazin-3-yl}-5-(6-methoxypyridazin-4-yl)phenol], the IC50 was less than 100 nM in the assay with SMN2 mRNA (setting [2]); 100 to 1000 nM in the assay with Target C mRNA (setting [3]); 100 to 1000 nM with MYB mRNA (setting [5]); 100 to 1000 nM with MYB mRNA (setting [6]); less than 100 nM in the assay on HTT mRNA (setting [7]); less than 100 nM with HTT mRNA (setting [8]). Further, the results for the concentration at half-maximal activity (AC50) with MYB mRNA (setting [4]) and in the assay with HTT mRNA (setting [4]) were 100 to 1000 nM and less than 100 nM, respectively.

Turning to `Cc1cc(-c2ccc(-c3ccc(N4CC[C@@H](NC5CCC5)C4)nn3)c(O)c2)cnn1` [Compound 292, 2-{6-[(3R)-3-(cyclobutylamino)pyrrolidin-1-yl]pyridazin-3-yl}-5-(6-methylpyridazin-4-yl)phenol], the IC50 was 1000 to 10000 nM with SMN2 mRNA (setting [2]); more than 10000 nM with Target C mRNA (setting [3]); more than 10000 nM in the assay on MYB mRNA (setting [5]); more than 10000 nM with MYB mRNA (setting [6]); more than 10000 nM with HTT mRNA (setting [7]); more than 10000 nM with HTT mRNA (setting [8]). Besides, the AC50 with MYB mRNA (setting [4]) and with HTT mRNA (setting [4]) was more than 10000 nM in each case.

For `Cc1nsc(-c2cc(O)c(-c3ccc(N4CC[C@@H](NCC5CC5)C4)nn3)cc2F)n1` [Compound 431], the IC50 in the assay with SMN2 mRNA (setting [2]) is less than 100 nM; in the assay on Target C mRNA (setting [3]) it was 100 to 1000 nM; in the assay on MYB mRNA (setting [5]) it was 100 to 1000 nM; in the assay with MYB mRNA (setting [6]), 100 to 1000 nM; in the assay on HTT mRNA (setting [7]), 100 to 1000 nM; in the assay with HTT mRNA (setting [8]), 100 to 1000 nM. Moreover, the AC50 in the assay on MYB mRNA (setting [4]) and in the assay with HTT mRNA (setting [4]) was 100 to 1000 nM throughout.

As to `CN([C@@H]1CCN(c2ccc(-c3ccc(-c4cn[nH]c4)cc3O)nn2)C1)C(C)(C)C` [Compound 446], the IC50 in the assay with SMN2 mRNA (canonical junction (CJ) mRNA, RT-qPCR panel, Table 4A, read-out: SMN2, decrease in CJ mRNA levels, IC50) is less than 100 nM; in the assay on Target C mRNA (canonical junction (CJ) mRNA, RT-qPCR panel, Table 4A, read-out: Target C, decrease in CJ mRNA levels, IC50), less than 100 nM; with MYB mRNA (Table 3A, A673 or K562 cells, 24 h treatment, read-out: MYB CJ (IC50, decrease in CJ mRNA)) it was less than 100 nM; with MYB mRNA (canonical junction (CJ) mRNA, RT-qPCR panel, Table 4A, read-out: MYB, decrease in CJ mRNA levels, IC50) it was less than 100 nM; in the assay on HTT mRNA (Table 3A, A673 or K562 cells, 24 h treatment, read-out: HTT CJ (IC50, decrease in CJ mRNA)), less than 100 nM; with HTT mRNA (canonical junction (CJ) mRNA, RT-qPCR panel, Table 4A, read-out: HTT, decrease in CJ mRNA levels, IC50), less than 100 nM. Moreover, the AC50 with MYB mRNA (setting [9]) and with HTT mRNA (setting [9]) was less than 100 nM throughout.

Turning to `Cc1ncc(-c2ccc(-c3ccc(N4CC[C@@H](N(C)C5CCC5)C4)nn3)c(O)c2)s1` [Compound 270, 2-{6-[(3R)-3-[cyclobutyl(methyl)amino]pyrrolidin-1-yl]pyridazin-3-yl}-5-(2-methyl-1,3-thiazol-5-yl) phenol], the IC50 in the assay on SMN2 mRNA (setting [2]) is 100 to 1000 nM; in the assay on Target C mRNA (setting [3]), more than 10000 nM; in the assay on MYB mRNA (setting [5]), more than 10000 nM; in the assay on MYB mRNA (setting [6]) it was more than 10000 nM; with HTT mRNA (setting [7]) it was more than 10000 nM; in the assay with HTT mRNA (setting [8]), more than 10000 nM. Further, the AC50 in the assay with MYB mRNA (setting [4]) and with HTT mRNA (setting [4]) was more than 10000 nM throughout.
